# Assays:
# CCRF-CEM = type: cell-based; conditions: one dose 10^-5 M, 48 h
# HL-60(TB) = type: cell-based; conditions: one dose 10^-5 M, 48 h
# K-562 = type: cell-based; conditions: 48 h
# MOLT-4 = type: cell-based; conditions: one dose 10^-5 M, 48 h
# RPMI-8226 = type: cell-based; conditions: one dose 10^-5 M, 48 h
# SR = type: cell-based; conditions: one dose 10^-5 M, 48 h
# A549/ATCC = type: cell-based; conditions: one dose 10^-5 M, 48 h
# EKVX = type: cell-based; conditions: one dose 10^-5 M, 48 h
# HOP-62 = type: cell-based; conditions: one dose 10^-5 M, 48 h
# HOP-92 = type: cell-based; conditions: one dose 10^-5 M, 48 h
# NCI-H226 = type: cell-based; conditions: one dose 10^-5 M, 48 h
# NCI-H23 = type: cell-based; conditions: one dose 10^-5 M, 48 h
# NCI-H460 = type: cell-based; conditions: one dose 10^-5 M, 48 h
# NCI-H522 = type: cell-based; conditions: one dose 10^-5 M, 48 h
# COLO 205 = type: cell-based; conditions: one dose 10^-5 M, 48 h
# HCC-2998 = type: cell-based; conditions: one dose 10^-5 M, 48 h
# HCT-116 = type: cell-based; conditions: one dose 10^-5 M, 48 h
# HCT-15 = type: cell-based; conditions: one dose 10^-5 M, 48 h
# HT29 = type: cell-based; conditions: 48 h
# KM12 = type: cell-based; conditions: one dose 10^-5 M, 48 h
# SW-620 = type: cell-based; conditions: one dose 10^-5 M, 48 h
# SF-268 = type: cell-based; conditions: one dose 10^-5 M, 48 h
# SF-295 = type: cell-based; conditions: one dose 10^-5 M, 48 h
# SF-539 = type: cell-based; conditions: one dose 10^-5 M, 48 h
# SNB-19 = type: cell-based; conditions: one dose 10^-5 M, 48 h
# SNB-75 = type: cell-based; conditions: one dose 10^-5 M, 48 h
# U251 = type: cell-based; conditions: 48 h
# LOX IMVI = type: cell-based; conditions: one dose 10^-5 M, 48 h
# MALME-3M = type: cell-based; conditions: one dose 10^-5 M, 48 h
# M14 = type: cell-based; conditions: one dose 10^-5 M, 48 h
# MDA-MB-435 = type: cell-based; conditions: one dose 10^-5 M, 48 h
# SK-MEL-2 = type: cell-based; conditions: one dose 10^-5 M, 48 h
# SK-MEL-28 = type: cell-based; conditions: one dose 10^-5 M, 48 h
# SK-MEL-5 = type: cell-based; conditions: one dose 10^-5 M, 48 h
# UACC-257 = type: cell-based; conditions: one dose 10^-5 M, 48 h
# UACC-62 = type: cell-based; conditions: one dose 10^-5 M, 48 h
# IGROV1 = type: cell-based; conditions: 48 h
# OVCAR-3 = type: cell-based; conditions: one dose 10^-5 M, 48 h
# OVCAR-4 = type: cell-based; conditions: one dose 10^-5 M, 48 h
# OVCAR-5 = type: cell-based; conditions: one dose 10^-5 M, 48 h
# OVCAR-8 = type: cell-based; conditions: one dose 10^-5 M, 48 h
# NCI/ADR-RES = type: cell-based; conditions: one dose 10^-5 M, 48 h
# SK-OV-3 = type: cell-based; conditions: one dose 10^-5 M, 48 h
# 786-0 = type: cell-based; conditions: one dose 10^-5 M, 48 h
# A498 = type: cell-based; conditions: one dose 10^-5 M, 48 h
# ACHN = type: cell-based; conditions: one dose 10^-5 M, 48 h
# CAKI-1 = type: cell-based; conditions: one dose 10^-5 M, 48 h
# SN12C = type: cell-based, human; conditions: one dose 10^-5 M, 48 h
# TK-10 = type: cell-based; conditions: one dose 10^-5 M, 48 h
# UO-31 = type: cell-based; conditions: one dose 10^-5 M, 48 h
# PC-3 = type: cell-based; conditions: one dose 10^-5 M, 48 h
# DU-145 = type: cell-based; conditions: one dose 10^-5 M, 48 h
# MCF7 = type: cell-based; conditions: one dose 10^-5 M, 48 h
# MDA-MB-231/ATCC = type: cell-based; conditions: one dose 10^-5 M, 48 h
# HS 578T = type: cell-based; conditions: one dose 10^-5 M, 48 h, HS 578T
# BT-549 = type: cell-based; conditions: one dose 10^-5 M, 48 h
# T-47D = type: cell-based; conditions: one dose 10^-5 M, 48 h
# MDA-MB-468 = type: cell-based; conditions: one dose 10^-5 M, 48 h
# [1] = test system: full NCI 60 cell lines panel; conditions: for activity on all 60 cancer cell lines tested (in words): one dose
# [2] = Homo sapiens, read-out: % growth
molecule,measurement,setting,value
"3-Amino-4-[4-(dimethylamino)phenyl]-1H-pyrazolo[3,4-d]pyrimidine-6-thiol [Compound 3a]",% growth,CCRF-CEM,77.55%
same,% growth,HL-60(TB),89.88%
same,% growth,K-562; one dose 10^-5 M,102.48%
same,% growth,MOLT-4,100.00%
same,% growth,RPMI-8226,86.49%
same,% growth,SR,90.80%
same,% growth,A549/ATCC,110.12%
same,% growth,EKVX,97.12%
same,% growth,HOP-62,108.87%
same,% growth,HOP-92,116.09%
same,% growth,NCI-H226,95.19%
same,% growth,NCI-H23,98.77%
same,% growth,NCI-H460,108.52%
same,% growth,NCI-H522,92.08%
same,% growth,COLO 205,120.31%
same,% growth,HCC-2998,108.59%
same,% growth,HCT-116,101.11%
same,% growth,HCT-15,95.53%
same,% growth,HT29; one dose 10^-5 M,108.47%
same,% growth,KM12,97.17%
same,% growth,SW-620,115.71%
same,% growth,SF-268,105.34%
same,% growth,SF-295,105.95%
same,% growth,SF-539,108.53%
same,% growth,SNB-19,101.52%
same,% growth,SNB-75,116.67%
same,% growth,U251; one dose 10^-5 M,109.49%
same,% growth,LOX IMVI,97.52%
same,% growth,MALME-3M,102.71%
same,% growth,M14,99.09%
same,% growth,MDA-MB-435,109.49%
same,% growth,SK-MEL-2,111.64%
same,% growth,SK-MEL-28,112.69%
same,% growth,SK-MEL-5,104.39%
same,% growth,UACC-257,110.00%
same,% growth,UACC-62,97.30%
same,% growth,IGROV1; one dose 10^-5 M,104.23%
same,% growth,OVCAR-3,116.36%
same,% growth,OVCAR-4,103.10%
same,% growth,OVCAR-5,107.30%
same,% growth,OVCAR-8,104.18%
same,% growth,NCI/ADR-RES,103.45%
same,% growth,SK-OV-3,107.23%
same,% growth,786-0,109.39%
same,% growth,A498,162.31%
same,% growth,ACHN,92.14%
same,% growth,CAKI-1,92.97%
same,% growth,SN12C,100.69%
same,% growth,TK-10,119.65%
same,% growth,UO-31,58.31%
same,% growth,PC-3,78.25%
same,% growth,DU-145,116.81%
same,% growth,MCF7,88.54%
same,% growth,MDA-MB-231/ATCC,98.99%
same,% growth,HS 578T,108.39%
same,% growth,BT-549,95.32%
same,% growth,T-47D,102.75%
same,% growth,MDA-MB-468,115.89%
same,activity on all 60 cancer cell lines tested (in words),[1],weak activity
same,Mean % growth,"[1]; one dose 10^-5 M, 48 h, mean over all cell lines",103.40%
"CN(C)c1ccc(-c2cc([N+](=O)[O-])ccc2C=NNC(=N)c2cnc(S)nc2N)cc1 [Compound 4c, 4-amino-N'-[6-[4-(dimethylamino)phenyl]-(4-nitrophenyl)methylene]-2-mercapto pyrimidine-5-carboximidohydrazide]",% cell growth at 10 µM,CCRF-CEM; Homo sapiens,84.4%
same,% growth at 10 µM,HL-60(TB); Homo sapiens,96.4%
same,% growth at 10 µM,"K-562; Homo sapiens, K562, one dose 10^-5 M",104%
same,activity at 10 µM,MOLT-4; [2],109%
same,% growth at 10 µM,RPMI-8226; Homo sapiens,97%
same,percent cell growth at 10 µM,SR; Homo sapiens,107%
same,% growth at 10 µM,A549/ATCC; Homo sapiens,104%
same,% cell growth at 10 µM,EKVX; Homo sapiens,100%
same,% growth at 10 µM,HOP-62; Homo sapiens,102%
same,% growth at 10 µM,HOP-92; Homo sapiens,118%
same,% growth at 10 µM,NCI-H226; Homo sapiens,112%
same,activity at 10 µM,NCI-H23; [2],104%
same,activity at 10 µM,NCI-H460; [2],108%
same,% growth at 10 µM,NCI-H522; Homo sapiens,96%
same,% growth at 10 µM,COLO 205; Homo sapiens,127%
same,activity at 10 µM,HCT-116; [2],106%
same,activity at 10 µM,HCT-15; [2],98.5%
same,% growth at 10 µM,"HT29; Homo sapiens, HT-29, one dose 10^-5 M",109%
same,% growth at 10 µM,KM12; Homo sapiens,100%
same,% growth at 10 µM,SW-620; Homo sapiens,109%
same,activity at 10 µM,SF-268; [2],87.8%
same,% cell growth at 10 µM,SF-295; Homo sapiens,92.4%
same,% growth at 10 µM,SF-539; Homo sapiens,98.8%
same,activity at 10 µM,SNB-19; [2],97.2%
same,% growth at 10 µM,SNB-75; Homo sapiens,100%
same,% growth at 10 µM,"U251; Homo sapiens, U-251, one dose 10^-5 M",106%
same,activity at 10 µM,LOX IMVI; [2],99.3%
same,% growth at 10 µM,MALME-3M; Homo sapiens,108%
same,% growth at 10 µM,M14; Homo sapiens,110%
same,activity at 10 µM,MDA-MB-435; [2],102%
same,% growth at 10 µM,SK-MEL-2; Homo sapiens,114%
same,% cell growth at 10 µM,SK-MEL-28; Homo sapiens,112%
same,activity at 10 µM,SK-MEL-5; [2],103%
same,percent cell growth at 10 µM,UACC-257; Homo sapiens,106%
same,% growth at 10 µM,UACC-62; Homo sapiens,100%
same,activity at 10 µM,"IGROV1; Homo sapiens, IGROV-1, one dose 10^-5 M, read-out: % growth",102%
same,% growth at 10 µM,OVCAR-3; Homo sapiens,106%
same,% growth at 10 µM,OVCAR-4; Homo sapiens,101%
same,percent cell growth at 10 µM,OVCAR-5; Homo sapiens,110%
same,% growth of cells at 10 µM,OVCAR-8; Homo sapiens,95.8%
same,cell growth percent at 10 µM,NCI/ADR-RES; Homo sapiens,102%
same,% growth at 10 µM,SK-OV-3; Homo sapiens,95.7%
same,% growth at 10 µM,786-0; Homo sapiens,95.7%
same,% growth at 10 µM,A498; Homo sapiens,124%
same,% growth at 10 µM,ACHN; Homo sapiens,103%
same,% growth at 10 µM,"CAKI-1; Homo sapiens, CAKI-1, 48 h",99.6%
same,% growth at 10 µM,SN12C; Homo sapiens,99.5%
same,% cell growth at 10 µM,TK-10; Homo sapiens,102%
same,% cell growth at 10 µM,"UO-31; Homo sapiens, UO-31, 48 h",75.4%
same,percent cell growth at 10 µM,PC-3; Homo sapiens,94.1%
same,% growth at 10 µM,DU-145; Homo sapiens,108%
same,activity at 10 µM,MCF7; [2],92%
same,% growth at 10 µM,MDA-MB-231/ATCC; Homo sapiens,111%
same,activity at 10 µM,HS 578T; [2],95.2%
same,% cell growth at 10 µM,BT-549; Homo sapiens,112%
same,activity at 10 µM,"T-47D; Homo sapiens, T47D, read-out: % growth",101%
same,percent cell growth at 10 µM,MDA-MB-468; Homo sapiens,108%
same,activity at 10 µM,"[1]; Homo sapiens, 60 cell, 48 h, read-out: Mean % growth",103%
same,activity on all 60 cancer cell lines tested (in words),[1],weak activity
